Key:
[1] = excess molar enthalpy (molar enthalpy of mixing); xn = mol fraction of the nth substance listed; conditions: 298.15 K, 101.33 kPa, Liquid, Flow calorimetry
[2] = 298.15 K, 101.33 kPa, Liquid

C=CCCCC [hex-1-ene] + CC(C)CC(C)(C)C
[1]
Conditions | excess molar enthalpy [kcal/mol]
x1 = 0.0501 | 0.0024
x1 = 0.1001 | 0.00448
x1 = 0.1501 | 0.00647
x1 = 0.2075 | 0.00837
x1 = 0.2499 | 0.00967
x1 = 0.2998 | 0.0109
x1 = 0.35 | 0.0119
x1 = 0.3998 | 0.0128
x1 = 0.4498 | 0.013
x1 = 0.4998 | 0.0134
x1 = 0.5497 | 0.0134
x1 = 0.5997 | 0.0131
x1 = 0.6499 | 0.0125
x1 = 0.6997 | 0.0117
x1 = 0.75 | 0.0105
x1 = 0.7994 | 0.00905
x1 = 0.8498 | 0.0074
x1 = 0.9 | 0.00524
x1 = 0.95 | 0.00273

CCCC(C)C [2-methylpentane] + C=CCCCC
[1]
Conditions | excess molar enthalpy [kcal/mol]
x2 = 0.0501 | 0.00256
x2 = 0.1 | 0.00496
x2 = 0.1504 | 0.00721
x2 = 0.2 | 0.00904
x2 = 0.2499 | 0.0106
x2 = 0.3001 | 0.0119
x2 = 0.3495 | 0.0128
x2 = 0.4001 | 0.0135
x2 = 0.4498 | 0.0139
x2 = 0.4997 | 0.014
x2 = 0.5501 | 0.0139
x2 = 0.6 | 0.0135
x2 = 0.6501 | 0.0128
x2 = 0.6993 | 0.0118
x2 = 0.7503 | 0.0104
x2 = 0.8001 | 0.00938
x2 = 0.8575 | 0.00688
x2 = 0.9 | 0.00513
x2 = 0.95 | 0.00269

C=CCCCC [hex-1-ene]
Conditions | mass density [kg/m3]
[2] | 668.73

CCC(C)(C)C [2,2-dimethylbutane]
Conditions | mass density [kg/m3]
[2] | 644.92

CCC(C)CC [3-methylpentane]
Conditions | mass density [kg/m3]
[2] | 659.94

CC(C)C(C)C [2,3-dimethylbutane]
Conditions | mass density [kg/m3]
[2] | 662.36

CCC(C)(C)C [2,2-dimethylbutane] + C=CCCCC
[1]
Conditions | excess molar enthalpy [kcal/mol]
x2 = 0.05 | 0.00286
x2 = 0.1 | 0.0056
x2 = 0.1576 | 0.00829
x2 = 0.2005 | 0.01
x2 = 0.2501 | 0.0116
x2 = 0.3002 | 0.0129
x2 = 0.3501 | 0.0138
x2 = 0.4002 | 0.0145
x2 = 0.4507 | 0.0149
x2 = 0.4999 | 0.0149
x2 = 0.5498 | 0.0147
x2 = 0.5996 | 0.0142
x2 = 0.6496 | 0.0134
x2 = 0.7 | 0.0124
x2 = 0.7501 | 0.0109
x2 = 0.7999 | 0.00973
x2 = 0.85 | 0.00798
x2 = 0.9 | 0.00524
x2 = 0.95 | 0.00272

CCCC(C)C [2-methylpentane]
Conditions | mass density [kg/m3]
[2] | 650.22

CCC(C)CC [3-methylpentane] + C=CCCCC
[1]
Conditions | excess molar enthalpy [kcal/mol]
x2 = 0.0501 | 0.00244
x2 = 0.1001 | 0.00478
x2 = 0.1533 | 0.00687
x2 = 0.2001 | 0.00842
x2 = 0.2501 | 0.00987
x2 = 0.3 | 0.0111
x2 = 0.3495 | 0.0119
x2 = 0.3995 | 0.0126
x2 = 0.45 | 0.013
x2 = 0.4995 | 0.0131
x2 = 0.5498 | 0.0129
x2 = 0.5997 | 0.0125
x2 = 0.6501 | 0.0119
x2 = 0.6994 | 0.0109
x2 = 0.7509 | 0.00972
x2 = 0.7999 | 0.00839
x2 = 0.85 | 0.00659
x2 = 0.9 | 0.00455
x2 = 0.95 | 0.00235

CC(C)C(C)C [2,3-dimethylbutane] + C=CCCCC
[1]
Conditions | excess molar enthalpy [kcal/mol]
x2 = 0.05 | 0.00357
x2 = 0.1001 | 0.00689
x2 = 0.1535 | 0.0101
x2 = 0.2 | 0.0124
x2 = 0.2508 | 0.0147
x2 = 0.2997 | 0.0162
x2 = 0.3499 | 0.0175
x2 = 0.3997 | 0.0186
x2 = 0.4498 | 0.019
x2 = 0.4998 | 0.0189
x2 = 0.5498 | 0.0186
x2 = 0.5996 | 0.0179
x2 = 0.6497 | 0.0169
x2 = 0.6997 | 0.0154
x2 = 0.7498 | 0.0136
x2 = 0.8001 | 0.0117
x2 = 0.8501 | 0.00924
x2 = 0.9 | 0.00639
x2 = 0.9499 | 0.00332

CC(C)CC(C)(C)C [2,2,4-trimethylpentane]
Conditions | mass density [kg/m3]
[2], Vibrating tube method | 688.03

From the NIST ThermoML archive (doi:10.1016/j.jct.2003.09.004)
